One may read the IC50 as the midpoint of a concentration-inhibition curve.

The values that follow come from patent US12522601B2, “1,3,4-oxadiazole derivative compounds as histone deacetylase 6 inhibitor, and the pharmaceutical composition comprising the same” (CHONG KUN DANG PHARMACEUTICAL CORP., priority 2020, dated 2026).

One experiment addresses T1, human recombinant HDAC1 (Homo sapiens, UniProt Q13547).
T1 construct: purchased Enzo Life Sciences, Inc. BML-SE456
Description: In vitro HDAC enzyme activity inhibition assay, HDAC1 (HDAC Fluorimetric Drug Discovery Kit). The experiment is classed as biochemical. The note with it: human recombinant HDAC1, Fluor de Lys-SIRT1 substrate 10 μM, 30° C. for 60 minutes. The gist of the method:
(§1)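 Fluorimetric deacetylase kit; 0.3 μg human recombinant enzyme with 10 μM Fluor de Lys-SIRT1 substrate, 60 min at 30° C, then developer 30 min. Fluorescence read at Ex 360/Em 460; IC50 from 5-fold compound dilutions. HDAC1 and HDAC6 run by the same protocol.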

The next experiment has as its target T2, human recombinant HDAC6 (Homo sapiens, UniProt Q9UBN7).
T2 construct: purchased Calbiochem Inc. 382180
T2 sequence (Q9UBN7 1-1215): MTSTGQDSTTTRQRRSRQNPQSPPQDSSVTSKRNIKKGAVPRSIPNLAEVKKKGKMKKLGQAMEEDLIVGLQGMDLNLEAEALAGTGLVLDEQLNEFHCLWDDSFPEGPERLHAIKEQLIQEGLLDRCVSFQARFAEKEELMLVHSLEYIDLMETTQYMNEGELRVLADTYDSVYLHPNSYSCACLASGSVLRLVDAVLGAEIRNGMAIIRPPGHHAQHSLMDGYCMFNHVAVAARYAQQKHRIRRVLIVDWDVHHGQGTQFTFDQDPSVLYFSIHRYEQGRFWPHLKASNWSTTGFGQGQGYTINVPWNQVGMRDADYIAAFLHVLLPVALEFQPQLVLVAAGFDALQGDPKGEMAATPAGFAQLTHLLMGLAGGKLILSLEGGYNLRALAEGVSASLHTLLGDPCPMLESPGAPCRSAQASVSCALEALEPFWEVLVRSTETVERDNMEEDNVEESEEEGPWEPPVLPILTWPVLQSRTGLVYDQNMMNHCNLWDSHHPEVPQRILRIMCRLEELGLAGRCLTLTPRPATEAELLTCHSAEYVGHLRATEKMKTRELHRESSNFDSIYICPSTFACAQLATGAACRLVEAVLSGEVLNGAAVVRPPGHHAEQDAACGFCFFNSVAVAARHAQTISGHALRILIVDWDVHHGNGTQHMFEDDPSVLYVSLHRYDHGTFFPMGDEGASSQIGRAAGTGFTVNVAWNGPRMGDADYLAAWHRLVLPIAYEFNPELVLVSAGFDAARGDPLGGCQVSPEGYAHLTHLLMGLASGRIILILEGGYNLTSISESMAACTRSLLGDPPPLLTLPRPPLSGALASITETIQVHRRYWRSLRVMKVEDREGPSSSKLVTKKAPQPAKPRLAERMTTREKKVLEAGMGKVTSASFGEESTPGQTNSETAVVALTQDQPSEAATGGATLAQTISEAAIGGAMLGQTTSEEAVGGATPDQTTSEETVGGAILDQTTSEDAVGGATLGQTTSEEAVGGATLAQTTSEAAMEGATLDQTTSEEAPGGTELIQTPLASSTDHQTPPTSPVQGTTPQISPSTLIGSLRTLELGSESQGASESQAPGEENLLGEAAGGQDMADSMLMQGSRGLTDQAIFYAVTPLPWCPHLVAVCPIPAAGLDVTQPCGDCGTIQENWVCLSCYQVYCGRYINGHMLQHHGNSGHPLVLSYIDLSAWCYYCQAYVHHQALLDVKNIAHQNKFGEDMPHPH
Put plainly: In vitro HDAC enzyme activity inhibition assay, HDAC6 (HDAC Fluorimetric Drug Discovery Kit). In kind it is biochemical. The note with it: for HDAC6 Selectivity (fold): HDAC6 versus HDAC1; for IC50: human recombinant HDAC6, same protocol as the HDAC1 test. The gist of the method: as §1

T1 sequence (Q13547 whole entry): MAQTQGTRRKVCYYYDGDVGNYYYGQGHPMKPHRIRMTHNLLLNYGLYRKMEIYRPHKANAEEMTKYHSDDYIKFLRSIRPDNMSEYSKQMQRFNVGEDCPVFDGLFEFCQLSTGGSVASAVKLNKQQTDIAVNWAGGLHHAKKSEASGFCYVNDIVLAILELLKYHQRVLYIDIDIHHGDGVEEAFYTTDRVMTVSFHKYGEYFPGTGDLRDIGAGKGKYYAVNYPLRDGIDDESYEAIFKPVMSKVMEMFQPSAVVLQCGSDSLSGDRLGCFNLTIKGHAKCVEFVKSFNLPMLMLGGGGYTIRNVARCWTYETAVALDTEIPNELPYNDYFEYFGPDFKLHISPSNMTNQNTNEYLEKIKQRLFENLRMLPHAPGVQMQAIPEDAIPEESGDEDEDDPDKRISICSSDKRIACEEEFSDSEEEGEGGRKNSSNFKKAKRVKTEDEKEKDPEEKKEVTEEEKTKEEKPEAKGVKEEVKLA

Regarding `CN1CCC(C(=O)N(Cc2cn3ccc(-c4nnc(C(F)F)o4)cc3n2)c2cccc(F)c2)CC1` [Compound 4137, N-((7-(5-(difluoromethyl)-1,3,4-oxadiazol-2-yl)imidazo[1,2-a]pyridin-2-yl)methyl)-N-(3-fluorophenyl)-1-methylpiperidine-4-carboxamide], the IC50 at human recombinant HDAC1 was > 50000 nM. Besides, at human recombinant HDAC6, the “HDAC6 Selectivity (fold)” value stood at 283 fold and the IC50 is 177 nM.

Regarding `CC(CO)N1CCN(C(=O)N(Cc2cn3ccc(-c4nnc(C(F)F)o4)cc3n2)c2ccccc2)CC1` (stereo not drawn) [Compound 4035, N-((7-(5-(difluoromethyl)-1,3,4-oxadiazol-2-yl)imidazo[1,2-a]pyridin-2-yl)methyl)-4-(1-hydroxypropan-2-yl)-N-phenylpiperazine-1-carboxamide], the IC50 on human recombinant HDAC1 was > 50000 nM. Besides, on human recombinant HDAC6, the “HDAC6 Selectivity (fold)” value amounted to 168 fold and the IC50 was 298 nM.

Turning to `CCN1CCN(C(=O)N(Cc2cn3ccc(-c4nnc(C(F)F)o4)cc3n2)c2cccc(F)c2)CC1` [Compound 4084, N-((7-(5-(difluoromethyl)-1,3,4-oxadiazol-2-yl)imidazo[1,2-a]pyridin-2-yl)methyl)-4-ethyl-N-(3-fluorophenyl)piperazine-1-carboxamide], the IC50 on human recombinant HDAC1 was > 50000 nM. Besides, at human recombinant HDAC6, the “HDAC6 Selectivity (fold)” value is given as 183 fold and the IC50 turned out to be 273 nM.

Regarding `O=C(N1CCN(C(=O)C(F)(F)F)CC1)N(Cc1cn2ccc(-c3nnc(C(F)F)o3)cc2n1)c1ccccc1` [Compound 4044, N-((7-(5-(difluoromethyl)-1,3,4-oxadiazol-2-yl)imidazo[1,2-a]pyridin-2-yl)methyl)-N-phenyl-4-(2,2,2-trifluoroacetyl)piperazine-1-carboxamide], the IC50 at human recombinant HDAC1 is > 50000 nM; on human recombinant HDAC6, 130 nM. The “HDAC6 Selectivity (fold)” value on human recombinant HDAC6 was determined as 384 fold.

With `O=C(C1CCN(C2CC3(COC3)C2)CC1)N(Cc1cn2ccc(-c3nnc(C(F)F)o3)cc2n1)c1cccc(F)c1` [Compound 4619, N-((7-(5-(difluoromethyl)-1,3,4-oxadiazol-2-yl)imidazo[1,2-a]pyridin-2-yl)methyl)-N-(3-fluorophenyl)-1-(2-oxaspiro[3.3]heptan-6-yl)piperidine-4-carboxamide], the IC50 on human recombinant HDAC1 was > 50000 nM. Further, on human recombinant HDAC6, the “HDAC6 Selectivity (fold)” value worked out at 253 fold and the IC50 stood at 197 nM.

`CN(C)C(=O)N1CCN(C(=O)N(Cc2cn3ccc(-c4nnc(C(F)F)o4)cc3n2)c2cccc(F)c2)CC1` [Compound 4099, N1-((7-(5-(difluoromethyl)-1,3,4-oxadiazol-2-yl)imidazo[1,2-a]pyridin-2-yl)methyl)-N1-(3-fluorophenyl)-N4,N4-dimethylpiperazine-1,4-dicarboxamide]: the IC50 at human recombinant HDAC1 is > 50000 nM. For the same compound, at human recombinant HDAC6, the “HDAC6 Selectivity (fold)” value stood at 360 fold and the IC50 worked out at 139 nM.

Turning to `CN(C)C(=O)N1CCN(C(=O)N(Cc2cn3ccc(-c4nnc(C(F)F)o4)cc3n2)c2ccccc2)CC1` [Compound 4047, N1-((7-(5-(difluoromethyl)-1,3,4-oxadiazol-2-yl)imidazo[1,2-a]pyridin-2-yl)methyl)-N4,N4-dimethyl-N1-phenylpiperazine-1,4-dicarboxamide], the IC50 on human recombinant HDAC1 was > 50000 nM; on human recombinant HDAC6, 125 nM. The “HDAC6 Selectivity (fold)” value on human recombinant HDAC6 came out at 400 fold.

Turning to `CC(C)N1CC(C(=O)N(Cc2cn3ccc(-c4nnc(C(F)F)o4)cc3n2)c2ccccc2)C1` [Compound 4160, N-((7-(5-(difluoromethyl)-1,3,4-oxadiazol-2-yl)imidazo[1,2-a]pyridin-2-yl)methyl)-1-isopropyl-N-phenylazetidine-3-carboxamide], the IC50 on human recombinant HDAC1 was > 50000 nM. Also, at human recombinant HDAC6, the “HDAC6 Selectivity (fold)” value was determined as 247 fold and the IC50 stood at 202 nM.

On to `CC(=O)N1CC(C(=O)N(Cc2cn3ccc(-c4nnc(C(F)F)o4)cc3n2)c2ccccc2)C1` [Compound 4167, 1-acetyl-N-((7-(5-(difluoromethyl)-1,3,4-oxadiazol-2-yl)imidazo[1,2-a]pyridine-2-yl)methyl)-N-phenylazetidine-3-carboxamide], for which the IC50 on human recombinant HDAC1 was > 50000 nM. On human recombinant HDAC6, the “HDAC6 Selectivity (fold)” value was determined as 112 fold and the half-inhibitory concentration (IC50) stood at 447 nM.

`O=C(C1CCN(C(=O)C(F)(F)F)CC1)N(Cc1cn2ccc(-c3nnc(C(F)F)o3)cc2n1)c1cccc(F)c1` [Compound 4152, N-((7-(5-(difluoromethyl)-1,3,4-oxadiazol-2-yl)imidazo[1,2-a]pyridin-2-yl)methyl)-N-(3-fluorophenyl)-1-(2,2,2-trifluoroacetyl)piperidine-4-carboxamide]: the IC50 on human recombinant HDAC1 is > 50000 nM. Moreover, on human recombinant HDAC6, the “HDAC6 Selectivity (fold)” value was found to be 245 fold and the IC50 amounted to 204 nM.

On to `O=C(C1CN(c2ccccn2)C1)N(Cc1cn2ccc(-c3nnc(C(F)F)o3)cc2n1)c1cccc(F)c1` [Compound 4206, N-((7-(5-(difluoromethyl)-1,3,4-oxadiazol-2-yl)imidazo[1,2-a]pyridin-2-yl)methyl)-N-(3-fluorophenyl)-1-(pyridin-2-yl) azetidine-3-carboxamide], for which the IC50 on human recombinant HDAC1 is > 50000 nM. Further, at human recombinant HDAC6, the “HDAC6 Selectivity (fold)” value was found to be 361 fold and the IC50 was found to be 138 nM.

As for `FC(F)c1nnc(-c2ccn3cc(Cc4ccc(C(F)(F)F)cc4)nc3c2)o1` [Compound 3591], the IC50 at human recombinant HDAC1 was > 50000 nM; on human recombinant HDAC6, 1060 nM. In addition, the “HDAC6 Selectivity (fold)” value on human recombinant HDAC6 came out at 47 fold.

Turning to `CN1CCN(C(=O)N(Cc2cn3ccc(-c4nnc(C(F)F)o4)cc3n2)c2ccccc2)CC1` [Compound 3784, N-((7-(5-(difluoromethyl)-1,3,4-oxadiazol-2-yl)imidazo[1,2-a]pyridin-2-yl)methyl)-4-methyl-N-phenylpiperazine-1-carboxamide], the IC50 was > 50000 nM on human recombinant HDAC1 and 68.8 nM at human recombinant HDAC6. Moreover, the “HDAC6 Selectivity (fold)” value on human recombinant HDAC6 is 727 fold.

With `O=C(C1CN(C2CCCCC2)C1)N(Cc1cn2ccc(-c3nnc(C(F)F)o3)cc2n1)c1cccc(F)c1` [Compound 4194, 1-cyclohexyl-N-((7-(5-(difluoromethyl)-1,3,4-oxadiazol-2-yl)imidazo[1,2-a]pyridin-2-yl)methyl)-N-(3-fluorophenyl) azetidine-3-carboxamide], the IC50 on human recombinant HDAC1 is > 50000 nM. On human recombinant HDAC6, the “HDAC6 Selectivity (fold)” value was determined as 379 fold and the IC50 came to 132 nM.

Turning to `COC(=O)N1CCN(C(=O)N(Cc2cn3ccc(-c4nnc(C(F)F)o4)cc3n2)c2ccccc2)CC1` [Compound 4046, methyl 4-(((7-(5-(difluoromethyl)-1,3,4-oxadiazol-2-yl)imidazo[1,2-a]pyridin-2-yl)methyl)(phenyl)carbamoyl)piperazine-1-carboxylate], at human recombinant HDAC1, the IC50 is > 50000 nM. Moreover, at human recombinant HDAC6, the “HDAC6 Selectivity (fold)” value worked out at 400 fold and the IC50 came to 125 nM.

For the compound `O=C(N1CCN(c2ncccn2)CC1)N(Cc1cn2ccc(-c3nnc(C(F)F)o3)cc2n1)c1ccccc1` [Compound 4049, N-((7-(5-(difluoromethyl)-1,3,4-oxadiazol-2-yl)imidazo[1,2-a]pyridin-2-yl)methyl)-N-phenyl-4-(pyrimidin-2-yl)piperazine-1-carboxamide], the IC50 at human recombinant HDAC1 is > 50000 nM. Moreover, at human recombinant HDAC6, the “HDAC6 Selectivity (fold)” value was 539 fold and the IC50 is 92.8 nM.

In the case of `O=C(N1CCN(C2CC3(CCC3)C2)CC1)N(Cc1cn2ccc(-c3nnc(C(F)F)o3)cc2n1)c1cccc(F)c1` [Compound 4620], the IC50 at human recombinant HDAC1 was > 50000 nM. Moreover, at human recombinant HDAC6, the “HDAC6 Selectivity (fold)” value is listed as 190 fold and the IC50 was 263 nM.

Consider `Cc1cccc(NCc2cn3ccc(-c4nnc(C(F)F)o4)cc3n2)c1` [Compound 3679, N-((7-(5-(difluoromethyl)-1,3,4-oxadiazol-2-yl)imidazo[1,2-a]pyridin-2-yl)methyl)-3-methylaniline], for which, on human recombinant HDAC1, the IC50 is > 50000 nM. Moreover, on human recombinant HDAC6, the “HDAC6 Selectivity (fold)” value was found to be 341 fold and the IC50 was 147 nM.
